Measured values: patent publication EP4775582A1, “MACROCYCLIC COMPOUND AND ANTIBODY-DRUG CONJUGATE THEREOF” (Genfleet Therapeutics (Shanghai) Inc., priority 2023, dated 2025)
One block for each compound: values may come before it.

Key:
KRAS WT-cRAF = KRAS WT-cRAF (Homo sapiens, UniProt P01116+P62937); test: Assay for binding of KRAS to cRAF (HTRF, with Cyclophilin A), KRAS WT; details: read-out: KRAS WT-cRAF binding assay, GPPNP-KRAS WT, IC50 values
Experimental: (§3) The plate was centrifuged at 1000 rpm for 1 min and then incubated in the thermostatic incubator at 20 °C for 30 min. […] The plate was centrifuged at 1000 rpm for 1 min and then incubated in the thermostatic incubator at 20 °C for 60 min. […] The working solution was added to the aforementioned assay plate at 5 µL/well. The plate was centrifuged at 1000 rpm for 1 min and then incubated in the thermostatic incubator at 20 °C for 60 min.

KRAS G12V-cRAF = KRAS G12V-cRAF (Homo sapiens, UniProt P01116+P62937, G12V); test: Assay for binding of KRAS to cRAF (HTRF, with Cyclophilin A), KRAS G12V; details: read-out: KRAS G12V-cRAF binding assay, GPPNP-KRAS G12V, IC50 values
Chain of KRAS G12V-cRAF (P01116 1-188 isoform P01116-2 G12V): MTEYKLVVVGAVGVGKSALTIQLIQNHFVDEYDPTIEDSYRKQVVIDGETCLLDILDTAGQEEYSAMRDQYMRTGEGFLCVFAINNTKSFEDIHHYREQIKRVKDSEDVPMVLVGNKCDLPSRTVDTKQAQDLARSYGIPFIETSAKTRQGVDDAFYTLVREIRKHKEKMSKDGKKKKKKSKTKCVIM
Chain of KRAS G12V-cRAF (P62937 whole entry): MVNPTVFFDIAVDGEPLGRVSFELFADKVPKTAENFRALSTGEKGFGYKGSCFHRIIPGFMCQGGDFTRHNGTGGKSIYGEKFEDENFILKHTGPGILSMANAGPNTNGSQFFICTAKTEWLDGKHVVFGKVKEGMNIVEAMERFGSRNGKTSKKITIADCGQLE
Experimental: as §3

AsPC-1 p-ERK = test: Cell p-ERK assay (HTRF), AsPC-1 cells; type: cell-based, human; details: Homo sapiens, ASPC1, 3 h, read-out: AsPC-1 p-ERK IC50(nM)
Experimental: (§1) The cells were digested with trypsin (containing EDTA), collected in their corresponding complete media, and counted. The density of the cell suspensions was adjusted with their corresponding complete media, and 10000 AsPC-1 cells or 20000 NCI-H441 cells per well were seeded into a 96-well cell culture plate, with the volume of the medium in each well being 80 µL. The cell culture plate was incubated in an incubator at 37 °C with 5% CO2 overnight. […] On the day after cell seeding, 20 µL of the 5× compound stock solution was added to each cell culture well. […] In addition to the compound-treated wells described above, cell-containing DMSO control wells were also set. A complete medium containing 0.5% DMSO was added at 20 µL/well. After the mixture was well mixed, the culture plate was incubated in the incubator at 37 °C with 5% CO2 for another 3 h. The medium was then removed from the culture wells, and 50 µL of cell lysis buffer (from Advance ERK phospho-T202/Y204 kit) was added to each well. The mixture was well mixed and incubated for 30 min. Then, 16 µL of the mixture was transferred to a white-bottomed, opaque 96-well assay plate, and separately, 16 µL of cell lysis buffer was added to additional wells (serving as blank wells) in the assay plate. After the transfer was completed, 4 µL of p-ERK HTRF antibody mixture (from Advance ERK phospho-T202/Y204 kit) was added to each well of the assay plate, followed by a 4-hour incubation. […] Using an XLfit software, the IR (%) values were plotted against the logarithm of the compound concentrations, and the dose-response curves were fitted using the four-parameter method to calculate the IC50 values.

AsPC-1 cells = test: 3D cell proliferation assay (CellTiter Glo-3D), AsPC-1; type: cell-based, human; details: Homo sapiens, ASPC1, 120 h, read-out: AsPC-1 AP IC50(nM)
Experimental: (§2) The cells were digested with trypsin (containing EDTA), collected in their respective low-serum complete media containing 2% FBS (for MIA Paca-2 cell culture: DMEM + 2% FBS + 0.5% Horse serum + 1% PS), and counted. After the cell density was adjusted as required, 200 MIA PaCa-2 cells, 800 AsPC-1 cells, 800 NCI-H441 cells, or 400 NCI-H1975 cells per well were seeded into a 384-well cell culture plate, with the volume of the medium in each well being 45 µL. The cell culture plate was incubated in an incubator at 37 °C with 5% CO2 overnight. […] On the day after cell seeding, 5 µL of the 10× compound stock solution was added to each cell culture well. […] In addition to the compound-treated wells described above, cell-containing DMSO control wells (with 5 µL of the complete medium containing 1% DMSO added to each well) and cell-free medium control wells (containing 50 µL of the complete medium with 2% FBS) were also set. The culture plate was incubated in an incubator at 37 °C with 5% CO2 for another 5 days, and then 30 µL of CellTiter-Glo working solution was added to each well. The mixture was well mixed, incubated for 30 min, left to stand at room temperature for 30 min, and then transferred to a white-bottomed, opaque 384-well assay plate at 40 µL/well. […] Using an XLfit software, the IR (%) values were plotted against the logarithm of the compound concentrations, and the dose-response curves were fitted using the four-parameter method to calculate the IC50 values.

NCI-H441 cells = test: 3D cell proliferation assay (CellTiter Glo-3D), NCI-H441; type: cell-based, human; details: Homo sapiens, 120 h, NCI-H441 cells (KRAS G12V), 2% FBS, 5 days, read-out: H441 AP IC50
Experimental: as §2

H441 p-ERK = test: Cell p-ERK assay (HTRF), NCI-H441 cells; type: cell-based, human; details: Homo sapiens; NCI-H441 cells (KRAS G12V), 3 h incubation
Experimental: as §1

Chain of KRAS WT-cRAF (P01116 1-188 isoform P01116-2): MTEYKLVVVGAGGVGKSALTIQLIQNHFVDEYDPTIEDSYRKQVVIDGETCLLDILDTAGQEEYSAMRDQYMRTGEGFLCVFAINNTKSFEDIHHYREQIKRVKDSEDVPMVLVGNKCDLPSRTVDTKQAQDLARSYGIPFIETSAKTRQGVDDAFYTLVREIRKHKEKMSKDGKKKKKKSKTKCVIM
Chain of KRAS WT-cRAF (P62937 whole entry): as the sequence (P62937 whole entry) above

IC50 (KRAS WT-cRAF): 58200 pM
IC50 (KRAS G12V-cRAF): 17500 pM
SMILES: CCn1c(-c2cc(C#CCN3CCC(C#N)CC3)cnc2[C@H](C)NC)c2c3cc(ccc31)-c1csc(n1)C[C@H](NC(=O)[C@H]1[C@@H]3COC[C@@H]31)C(=O)N1CCC[C@H](N1)C(=O)OCC(C)(C)C2 (atropisomer, axis not shown; (Ra)) [Compound Z169-1, (1R,5S,6r)-N-((6^3S,4S,Z)-(Ra)-1^2-(5-(3-(4-cyanopiperidin-1-yl)prop-1-yn-1-yl)-2-((S)-1-(methylamino)ethyl)pyridin-3-yl)-1^1-ethyl-10,10-dimethyl-5,7-dioxo-6^1,6^2,6^3,6^4,6^5,6^6-hexahydro-1^1H-8-oxa-2(4,2)-thiazola-1(5,3)-indola-6(1,3)-pyridazinacycloundecaphane-4-yl)-3-oxabicyclo[3.1.0]hexane-6-carboxamide]

IC50 (AsPC-1 p-ERK): 0.42 nM
IC50 (AsPC-1 cells): 0.37 nM
IC50 (NCI-H441 cells): 400 pM
IC50 (H441 p-ERK): 480 pM
SMILES: COCCn1c(-c2cc(C#CCN3CCC(C#N)(CO)CC3)cnc2[C@H](C)OC)c2c3cc(ccc31)-c1csc(n1)C[C@H](NC(=O)[C@H]1[C@@H]3COC[C@@H]31)C(=O)N1CCC[C@H](N1)C(=O)OCC(C)(C)C2 (atropisomer, axis not shown) [Compound Z28, (1R,5S,6r)-N-((6^3S,4S,Z)-1^2-(5-(3-(4-cyano-4-hydroxymethylpiperidin-1-yl)prop-1-yn-1-yl)-2-((S)-1-methoxyethyl)pyridin-3-yl)-1^1-(methoxyethyl)-10,10-dimethyl-5,7-dioxo-6^1,6^2,6^3,6^4,6^5,6^6-hexahydro-1^1H-8-oxa-2(4,2)-thiazola-1(5,3)-indola-6(1,3)-pyridazinacycloundecaphane-4-yl)-3-oxabicyclo[3.1.0]hexane-6-carboxamide]

IC50 (AsPC-1 p-ERK): 0.42 nM
IC50 (AsPC-1 cells): 0.56 nM
IC50 (NCI-H441 cells): 350 pM
IC50 (H441 p-ERK): 450 pM
SMILES: CCn1c(-c2cc(C#CCN3CCS(=O)(=O)CC3)cnc2[C@H](C)OC)c2c3cc(ccc31)-c1csc(n1)C[C@H](NC(=O)[C@H]1[C@H](C)[C@@H]1CO)C(=O)N1CCC[C@H](N1)C(=O)OCC(C)(C)C2 (atropisomer, axis not shown; (Ra)) [Compound Z7-2, (1S,2S,3R)-N-((6^3S,4S,Z)-(Ra)-1^2-(5-(3-(1,1-dioxidothiomorpholino)prop-1-yn-1-yl)-2-((S)-1-methoxyethyl)pyridin-3-yl)-1^1-ethyl-10,10-dimethyl-5,7-dioxo-6^1,6^2,6^3,6^4,6^5,6^6-hexahydro-1^1H-8-oxa-2(4,2)-thiazola-1(5,3)-indola-6(1,3)-pyridazinacycloundecaphane-4-yl)-2-(hydroxymethyl)-3-methylcyclopropane-1-carboxamide]

IC50 (AsPC-1 p-ERK): 2.08 nM
IC50 (AsPC-1 cells): 2.59 nM
IC50 (NCI-H441 cells): 2040 pM
IC50 (H441 p-ERK): 1510 pM
SMILES: CCn1c(-c2cc(C#CCN3CCN(C(=O)CNC)CC3)cnc2[C@H](C)OC)c2c3cc(ccc31)-c1csc(n1)C[C@H](NC(=O)[C@H]1[C@@H]3COC[C@@H]31)C(=O)N1CCC[C@H](N1)C(=O)OCC(C)(C)C2 (atropisomer, axis not shown; (Ra)) [Compound Z164]

IC50 (AsPC-1 p-ERK): 0.26 nM
IC50 (AsPC-1 cells): 0.46 nM
IC50 (NCI-H441 cells): 350 pM
IC50 (H441 p-ERK): 220 pM
SMILES: CCn1c(-c2cc(C#CCN3CCS(=O)(=O)CC3)cnc2[C@H](C)OC)c2c3cc(ccc31)-c1csc(n1)C[C@H](NC(=O)[C@@H](NC)C1CCC1)C(=O)N1CCC[C@H](N1)C(=O)OCC(C)(C)C2 (atropisomer, axis not shown; (Ra)) [Compound Z17, (2S)-2-methylamino-2-cyclobutyl-N-((6^3S,4S,Z)-(Ra)-1^2-(5-(3-(1,1-dioxidothiomorpholino)prop-1-yn-1-yl)-2-((S)-1-methoxyethyl)pyridin-3-yl)-1^1-ethyl-10,10-dimethyl-5,7-dioxo-6^1,6^2,6^3,6^4,6^5,6^6-hexahydro-1^1H-8-oxa-2(4,2)-thiazola-1(5,3)-indola-6(1,3)-pyridazinacycloundecaphane-4-yl)acetamide]

More lines, now with the values behind:

SMILES: CCn1c(-c2cc(C#CCN3CCS(=O)(=O)CC3)cnc2[C@H](C)OC)c2c3cc(ccc31)-c1csc(n1)C[C@H](NC(=O)[C@@H](NC)C1CCCC1)C(=O)N1CCC[C@H](N1)C(=O)OCC(C)(C)C2 (atropisomer, axis not shown; (Ra)) [Compound Z15, (2S)-2-methylamino-2-cyclopentyl-N-((6^3S,4S,Z)-(Ra)-1^2-(5-(3-(1,1-dioxidothiomorpholino)prop-1-yn-1-yl)-2-((S)-1-methoxyethyl)pyridin-3-yl)-1^1-ethyl-10,10-dimethyl-5,7-dioxo-6^1,6^2,6^3,6^4,6^5,6^6-hexahydro-1^1H-8-oxa-2(4,2)-thiazola-1(5,3)-indola-6(1,3)-pyridazinacycloundecaphane-4-yl)acetamide]
IC50 (AsPC-1 p-ERK): 0.42 nM
IC50 (AsPC-1 cells): 0.31 nM
IC50 (NCI-H441 cells): 350 pM
IC50 (H441 p-ERK): 240 pM

SMILES: CCn1c(-c2cc(C#CCN3CCN(C(=O)CN)CC3)cnc2[C@H](C)OC)c2c3cc(ccc31)-c1csc(n1)[C@@H](OCCN(C)C)[C@H](NC(=O)[C@H]1[C@H](C)[C@@H]1C)C(=O)N1CCC[C@H](N1)C(=O)OCC(C)(C)C2 (atropisomer, axis not shown; (Ra)) [Compound Z165]
IC50 (AsPC-1 p-ERK): 10.3 nM
IC50 (AsPC-1 cells): 10 nM
IC50 (NCI-H441 cells): 24400 pM
IC50 (H441 p-ERK): 13700 pM

SMILES: CCn1c(-c2cc(C#CCN3CCS(=O)(=O)CC3)cnc2[C@H](C)OC)c2c3cc(ccc31)-c1csc(n1)C[C@H](Nc1n[nH]c3cc(C)ccc13)C(=O)N1CCC[C@H](N1)C(=O)OCC(C)(C)C2 (atropisomer, axis not shown; (Ra)) [Compound Z171, (6^3S,4S,Z)-(Ra)-1^2-(5-(3-(1,1-dioxidothiomorpholino)prop-1-yn-1-yl)-2-((S)-1-methoxyethyl)pyridin-3-yl)-1^1-ethyl-10,10-dimethyl-4-((6-methyl-1H-indazol-3-yl)amino)-6^1,6^2,6^3,6^4,6^5,6^6-hexahydro-1^1H-8-oxa-2(4,2)-thiazola-1(5,3)-indola-6(1,3)-pyridazinacycloundecaphane-5,7-dione]
IC50 (AsPC-1 p-ERK): 0.97 nM
IC50 (AsPC-1 cells): 1.36 nM
IC50 (NCI-H441 cells): 2780 pM
IC50 (H441 p-ERK): 530 pM

SMILES: CCn1c(-c2cc(C#CCN3CCCN(C(=O)CO)CC3)cnc2[C@H](C)OC)c2c3cc(ccc31)-c1csc(n1)C[C@H](NC(=O)[C@H]1[C@H](C)[C@@H]1C)C(=O)N1CCC[C@H](N1)C(=O)OCC(C)(C)C2 (atropisomer, axis not shown; (Ra)) [Compound Z10, (1r,2R,3S)-N-((6^3S,4S,Z)-1^1-ethyl-(Ra)-1^2-(5-(3-(4-(2-hydroxyacetyl)-1,4-diazepin-1-yl)prop-1-yn-1-yl)-2-((S)-1-methoxyethyl)pyridin-3-yl)-10,10-dimethyl-5,7-dioxo-6^1,6^2,6^3,6^4,6^5,6^6-hexahydro-1^1H-8-oxa-2(4,2)-thiazola-1(5,3)-indola-6(1,3)-pyridazinacycloundecaphane-4-yl)-2,3-dimethylcyclopropane-1-carboxamide]
IC50 (AsPC-1 p-ERK): 0.12 nM
IC50 (AsPC-1 cells): 0.16 nM
IC50 (NCI-H441 cells): 130 pM
IC50 (H441 p-ERK): 180 pM
